Where two headings read alike, the source gives them in different places.
How the values were obtained:
[1] = tested on: rat plasma; test: Plasma protein binding, rat plasma; format: in vitro ADME
[2] = target: T1, CYP2C8 (Homo sapiens, UniProt P10632); test: Cytochrome P450 inhibition, CYP2C8; format: in vitro ADME; settings: read-out: IC50 2C8
T1 construct: purchased BD Gentest, Becton-Dickinson (Supersomes); host or cells: insect cells
T1 sequence (P10632 1-490): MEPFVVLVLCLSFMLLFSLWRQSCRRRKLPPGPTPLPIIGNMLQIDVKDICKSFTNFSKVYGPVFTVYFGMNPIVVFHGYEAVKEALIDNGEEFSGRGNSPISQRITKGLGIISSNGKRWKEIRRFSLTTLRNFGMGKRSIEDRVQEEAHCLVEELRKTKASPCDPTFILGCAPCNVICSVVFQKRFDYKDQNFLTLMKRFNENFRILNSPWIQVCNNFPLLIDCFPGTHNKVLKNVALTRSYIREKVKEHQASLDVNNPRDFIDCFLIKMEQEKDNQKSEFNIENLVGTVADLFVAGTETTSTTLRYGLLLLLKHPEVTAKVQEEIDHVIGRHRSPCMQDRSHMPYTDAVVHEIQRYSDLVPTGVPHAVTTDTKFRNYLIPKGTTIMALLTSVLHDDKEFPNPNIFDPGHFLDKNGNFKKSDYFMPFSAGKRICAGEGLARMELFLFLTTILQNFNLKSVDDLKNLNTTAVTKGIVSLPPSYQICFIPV
Excerpt: (§1) K. Assay for Cytochrome P450 Inhibition
(§2) Cytochrome P450 enzymes are implicated in the phase I metabolism of drugs. The majority of drug-drug interactions are metabolism-based and, moreover, these interactions typically involve inhibition of cytochrome P450s. Six CYP450 enzymes (CYP1A2, CYP2C8, CYP2C9, CYP2C19, CYP2D6 and CYP3A4) appear to be commonly responsible for the metabolism of most drugs and the associated drug-drug interactions. Assays to determine the binding of compounds of the invention to the various metabolically important isoforms of cytochrome P450 metabolizing enzymes are commercially available, for example NoAb BioDiscoveries (Mississaugua, ON, Canada) and Absorption Systems (Exton, Pa., USA). As well, a number of appropriate methods have been described or reviewed in the literature. (White, R. E. Ann. Rev. Pharmacol. Toxicol. 2000, 40, 133-157; Li, A. P. Drug. Disc. Today 2001, 6, 357-366; Turpeinen, M.; Korhonen, L. E. Tolonen, A.; et al. Eur. J. Pharm. Sci, 2006, 29, 130-138.)
(§3) The key aspects of the experimental method were as follows: • 1. […] Assays monitored, via fluorescence detection, the formation of a fluorescent metabolite following incubation of the microsomes with a specific CYP substrate. • 3. Compounds of the present invention were tested in duplicate samples at eight test concentrations using 3-fold serial dilutions (concentration range of 0.0457 to 100 μM). • 4. For each CYP-450 enzyme, a specific inhibitor was tested in duplicate at eight concentrations as a positive control. • 5. The concentration of the inhibitor or test compound that inhibited metabolite formation by 50% (IC50) was calculated by non-linear regression analysis of the % inhibition vs. log concentration (M) curve.

[3] = target: human growth hormone secretagogue receptor (hGHS-R1a) (Homo sapiens, UniProt Q92847); test: Competitive radioligand binding assay (ghrelin receptor), standard method A
Chain of human growth hormone secretagogue receptor (hGHS-R1a) (Q92847 whole entry): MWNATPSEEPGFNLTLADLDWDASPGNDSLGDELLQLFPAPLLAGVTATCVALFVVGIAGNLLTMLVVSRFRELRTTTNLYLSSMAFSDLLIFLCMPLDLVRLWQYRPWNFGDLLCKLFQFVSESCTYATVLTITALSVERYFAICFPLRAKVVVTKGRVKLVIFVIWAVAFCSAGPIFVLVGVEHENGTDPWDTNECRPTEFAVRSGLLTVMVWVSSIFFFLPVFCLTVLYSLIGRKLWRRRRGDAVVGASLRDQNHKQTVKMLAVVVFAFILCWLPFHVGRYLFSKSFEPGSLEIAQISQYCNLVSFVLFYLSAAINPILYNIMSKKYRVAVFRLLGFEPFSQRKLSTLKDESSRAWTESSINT

[4] = target: T2, CYP2D6 (Homo sapiens, UniProt P10635); test: Cytochrome P450 inhibition, CYP2D6; format: in vitro ADME; settings: read-out: IC50 2D6
T2 construct: purchased BD Gentest, Becton-Dickinson (Supersomes); host or cells: insect cells
T2 sequence (P10635 whole entry): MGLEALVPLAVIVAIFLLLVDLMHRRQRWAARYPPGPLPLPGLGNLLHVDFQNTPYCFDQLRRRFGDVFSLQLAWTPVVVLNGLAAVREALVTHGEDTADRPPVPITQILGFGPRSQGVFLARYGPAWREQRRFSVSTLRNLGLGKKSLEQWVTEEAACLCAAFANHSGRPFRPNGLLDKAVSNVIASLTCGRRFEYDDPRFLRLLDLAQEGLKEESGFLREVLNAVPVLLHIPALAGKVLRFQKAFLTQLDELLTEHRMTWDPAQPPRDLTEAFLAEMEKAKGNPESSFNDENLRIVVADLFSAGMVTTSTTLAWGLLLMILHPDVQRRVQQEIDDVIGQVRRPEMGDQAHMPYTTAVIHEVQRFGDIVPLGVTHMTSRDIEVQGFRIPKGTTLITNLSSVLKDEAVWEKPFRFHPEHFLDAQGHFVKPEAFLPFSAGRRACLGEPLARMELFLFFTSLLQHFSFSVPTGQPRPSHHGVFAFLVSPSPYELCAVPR
Excerpt: as §1, §2, §3

[5] = tested on: fasted rats; test: Gastric emptying in fasted rat model, standard method E; format: in vivo; settings: for Percent Increase in Gastric Emptying After Oral Administration: average where repeated
Description: E. Gastric Emptying in Fasted Rat Model
To examine the effects of compounds of the invention in a model for gastroparesis, compounds were evaluated for possible effects on gastric emptying in fasted rats. This model is used to determine the potential of compounds of the invention to promote motility in fasted rats.
• 1. Overnight-fasted rats (male, Wistar, 200 g, n=5/group) were given a meal (2 mL) of methylcellulose (2%) by intragastric gavage. The meal was labeled with phenol red (0.05%). • 2. Test articles (dosed at various concentrations, typically 1, 3, 10, 30 mg/kg), vehicle and positive control (metoclopramide, a 5-HT ligand and prokinetic agent currently prescribed for the treatment of GI disorders, including gastroparesis) were administered by oral gavage immediately after the meal (time=0). • 3. […] Total phenol red remaining in the stomach was quantified by a colorimetric method at 560 nm. • 5. A 30% or more increase in gastric emptying (as compared to the vehicle control) was considered significant. • 6. One-way ANOVA, Dunnet's post-hoc statistical test was applied Results
The effects of representative compounds of the invention in the rat gastric emptying model described in standard method E are provided in the following table. In cases where an experiment was conducted multiple times, the average of the individual results is presented.

[6] = target: T3, CYP3A4 (Homo sapiens, UniProt P08684); test: Cytochrome P450 inhibition, CYP3A4 (two substrates); format: in vitro ADME
T3 construct: purchased BD Gentest, Becton-Dickinson (Supersomes); host or cells: insect cells
T3 sequence (P08684 whole entry): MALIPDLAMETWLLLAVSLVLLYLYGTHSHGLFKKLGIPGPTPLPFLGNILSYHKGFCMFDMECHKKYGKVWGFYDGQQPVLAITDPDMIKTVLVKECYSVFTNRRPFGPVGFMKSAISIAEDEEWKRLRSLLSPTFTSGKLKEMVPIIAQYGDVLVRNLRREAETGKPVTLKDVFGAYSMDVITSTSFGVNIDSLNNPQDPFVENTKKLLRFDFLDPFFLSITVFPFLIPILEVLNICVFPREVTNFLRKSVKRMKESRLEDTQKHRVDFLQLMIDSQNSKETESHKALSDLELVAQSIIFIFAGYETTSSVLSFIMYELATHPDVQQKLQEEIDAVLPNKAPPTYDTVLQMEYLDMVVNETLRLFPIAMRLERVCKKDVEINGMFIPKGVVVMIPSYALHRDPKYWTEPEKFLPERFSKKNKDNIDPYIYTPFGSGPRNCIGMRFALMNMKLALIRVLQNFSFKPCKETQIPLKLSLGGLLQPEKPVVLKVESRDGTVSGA
Excerpt: as §1, §2, §3

[7] = target: T4, CYP2C9 (Homo sapiens, UniProt P11712); test: Cytochrome P450 inhibition, CYP2C9; format: in vitro ADME; settings: read-out: IC50 2C9
T4 construct: purchased BD Gentest, Becton-Dickinson (Supersomes); host or cells: insect cells
T4 sequence (P11712 whole entry): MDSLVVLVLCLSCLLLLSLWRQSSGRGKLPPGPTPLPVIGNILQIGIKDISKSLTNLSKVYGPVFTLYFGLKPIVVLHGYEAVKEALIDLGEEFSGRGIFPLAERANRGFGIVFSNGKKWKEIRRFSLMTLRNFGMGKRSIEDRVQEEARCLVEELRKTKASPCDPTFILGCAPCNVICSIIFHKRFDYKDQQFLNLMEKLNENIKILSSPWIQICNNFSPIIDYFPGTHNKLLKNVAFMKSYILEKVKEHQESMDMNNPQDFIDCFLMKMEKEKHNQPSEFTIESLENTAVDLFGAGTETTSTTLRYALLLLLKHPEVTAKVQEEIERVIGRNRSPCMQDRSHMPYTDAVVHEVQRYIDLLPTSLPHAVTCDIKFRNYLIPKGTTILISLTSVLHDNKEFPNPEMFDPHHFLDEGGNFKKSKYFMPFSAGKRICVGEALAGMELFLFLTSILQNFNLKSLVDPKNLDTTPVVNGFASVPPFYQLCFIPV
Excerpt: as §1, §2, §3

[8] = binding activity at the human ghrelin receptor, standard method A
[9] = CYP3A4, substrate BFC, read-out: IC50 3A4 (BFC)
[10] = CYP3A4, substrate BQ, read-out: IC50 3A4 (BQ)

| Compound | IC50 [2] | IC50 [4] | IC50 [6, 9] | IC50 [6, 10] | IC50 [7] | Ki [3] | Rat Plasma Protein Binding (%) ([1]; test concentration 5 μg/mL) | Rat Plasma Protein Binding (%) ([1]; test concentration 3 μg/mL) | Ki [3, 8] | Percent Increase in Gastric Emptying After Oral Administration ([5]; dose 3 mg/kg) | Percent Increase in Gastric Emptying After Oral Administration ([5]; dose 1 mg/kg) | Percent Increase in Gastric Emptying After Oral Administration ([5]; dose 10 mg/kg) | gastric emptying rates remained increased ([5]; oral, up to 24 h post-dose) | Rat Plasma Protein Binding (%) ([1]; test concentration 1 μg/mL) |
| --- | --- | --- | --- | --- | --- | --- | --- | --- | --- | --- | --- | --- | --- | --- |
| C[C@@H]1C(=O)N[C@H](Cc2ccc(O)cc2)C(=O)NCCCc2ccc(F)cc2OCCN[C@@H](C2CC2)C(=O)N1C [Compound 809] | > 100 µM | > 100 µM | 6.61 µM | 1.53 µM | > 100 µM | – | – | 92.8% | ≤ 0.1 µM | 5% | – | – | – | – |
| CC1NC(C2CC2)C(=O)N(C)C(C)C(=O)NC(Cc2ccc(O)cc2)C(=O)NCCCc2ccccc2OC1C (stereo not shown) [Compound 820] | > 100 µM | > 100 µM | 47.4 µM | 13.8 µM | > 100 µM | – | – | 98.8% | ≤ 0.1 µM | 20% | 6% | 22% | – | – |
| CC1CNC(C2CC2)C(=O)N(C)C(C)C(=O)NC(Cc2ccc(O)cc2)C(=O)NCCCC2CCCCC2O1 (mixture of isomers) [Compound 826] | > 100 µM | > 100 µM | 47.5 µM | 4.5 µM | > 100 µM | – | – | 97.2% | ≤ 0.1 µM | 12% | 19% | 30% | – | – |
| C[C@@H]1C(=O)N[C@H](Cc2ccc(O)cc2)C(=O)NCCCc2cccc3c2O[C@H](CC3)CN[C@@H](C2CC2)C(=O)N1C [Compound 803] | 54.6 µM | > 100 µM | – | 11.5 µM | > 100 µM | – | – | – | ≤ 0.1 µM | – | – | – | – | 99.1% |

Now from value to molecule, other results behind:

| IC50 [2] | IC50 [4] | IC50 [6, 9] | IC50 [6, 10] | IC50 [7] | Ki [3] | Rat Plasma Protein Binding (%) ([1]; test concentration 5 μg/mL) | Compound | Rat Plasma Protein Binding (%) ([1]; test concentration 3 μg/mL) | Ki [3, 8] | Percent Increase in Gastric Emptying After Oral Administration ([5]; dose 3 mg/kg) | Percent Increase in Gastric Emptying After Oral Administration ([5]; dose 1 mg/kg) | Percent Increase in Gastric Emptying After Oral Administration ([5]; dose 10 mg/kg) | gastric emptying rates remained increased ([5]; oral, up to 24 h post-dose) | Rat Plasma Protein Binding (%) ([1]; test concentration 1 μg/mL) |
| --- | --- | --- | --- | --- | --- | --- | --- | --- | --- | --- | --- | --- | --- | --- |
| > 100 µM | > 100 µM | 23.3 µM | 6.1 µM | > 100 µM | ≤ 0.01 µM | – | CC(C)C[C@H]1NC(=O)[C@@H](C)N(C)C(=O)[C@H](C2CC2)NC[C@@H](C)Oc2ccccc2CC[C@H](C)NC1=O [Compound 807] | – | – | 31% | 17% | 41% | 18-23% | – |
| > 100 µM | > 100 µM | 14.2 µM | 4.15 µM | > 100 µM | – | – | CC(C)C[C@H]1NC(=O)[C@@H](C)N(C)C(=O)[C@H](C2CC2)NCCOc2cc(F)ccc2CC[C@H](C)NC1=O [Compound 822] | 99.1% | ≤ 0.1 µM | 6% | – | – | – | – |
| > 100 µM | > 100 µM | 18.7 µM | 8.9 µM | > 100 µM | – | – | CC(C)CC1NC(=O)C(C)N(C)C(=O)C(C2CCCCC2)NCC(C)OC2CCCCC2CCCNC1=O (mixture of isomers) [Compound 828] | – | ≤ 0.001 µM | 24% | – | – | – | – |
| > 100 µM | > 100 µM | 93.4 µM | 6.7 µM | > 100 µM | – | 73% | CC(C)CC1NC(=O)C(C)N(C)C(=O)C(C2CC2)NCC(C)OC2CCCCC2CCCNC1=O (mixture of isomers) [Compound 825] | – | ≤ 0.01 µM | – | – | – | – | 96.6% |
| > 100 µM | > 100 µM | 7.42 µM | 1.08 µM | > 100 µM | – | – | CC(C)C[C@H]1NC(=O)[C@@H](C)N(C)C(=O)[C@H](C2CC2)NCCOc2cc(F)ccc2CCCNC1=O [Compound 810] | – | ≤ 0.1 µM | – | – | – | – | – |

From patent publication US10258602B2 (Ocera Therapeutics, Inc., priority 2007, dated 2019)
